Source: article PMC6238273, “First in vivo evaluation of a potential SPECT brain radiotracer for the gonadotropin releasing hormone receptor” (BMC Research Notes, 2018)
Entries after “also recorded” stand apart in the source; their conditions may differ.

Columns and labels:
[1] = In vivo stability: radio-HPLC of blood samples 1 h post injection; conditions: rat blood samples 1 h post injection
Method: (§1) The stability of Compound-1 was initially investigated in saline. Compound-1 was dissolved in ethanol:Polysorbate 80:water (5:5:90) then incubated with 300 µl 0.9% NaCl at ambient temperature to give a final concentration of 6.5 mM (millimolar). Aliquots were taken at 0, 60, 120 and 1560 min, then analysed by LC–MS. Furthermore, Compound-1 was investigated in human and rat serum. Compound-1 in ethanol:Polysorbate 80:water (5:5:90) was incubated with 400 µl human and 300 µl rat serum at 37 °C to give a final concentration of 5 mM and 6.5 mM. Aliquots (40–50 µl) from previous mixtures was extracted with ice-cold acetonitrile at 0, 10, 30, 60, 120, 240 and 1320 min post-incubation. Samples were centrifuged at 13,000g for 5 min. The supernatants were analysed by LC–MS. Serum experiments were performed in triplicate. Additionally, [^123I]-Compound-1 was evaluated for in vivo stability by analyzing blood samples after 1 h post injection. The blood samples were centrifuged and the supernatant was injected on the radio-HPLC.

Rat brain SPECT imaging = type: in vivo
Method: Compound-1 SPECT brain imaging and biodistribution were examined post injection in rats. All animal procedures were performed under isoflurane anesthesia (Induction 4%, Maintenance 2% in oxygen). One group of rats was injected intravenous (iv.) with [^123I]-Compound-1 (1.67 MBq ± 0.28, n = 3). A second group was injected intraperitoneal (ip.) (4.12 MBq ± 0.56, n = 3). A third group of animals was injected iv. with Na^123I (1.53 MBq ± 0.37 SD, n = 3). Biodistribution of these compounds was studied after the SPECT imaging sessions 1 h post-injection (in the iv. groups) and 2 and 5 h post-administration in the ip. group. Rats were positioned with the brain in the center of the field of view inside a 4 detector configuration Triumph™ II X-SPECT^Ⓡ small animal PET/SPECT/CT scanner (Trifoil Imaging, Northridge Tri-Modality Imaging, Inc., Chatsworth, CA). Heart rate and breathing was monitored with sensors inside a closed animal cell (Equipment Veterinaire Minerve, Esternay) and the temperature on the heated air flow inside the cell was set to 35 °C to prevent hypothermia. […] Images were analyzed using PMOD (PMOD Technologies Ltd., Zürich). […] In addition, an average SPECT image over all time frames was calculated for each animal.

[2] = Biodistribution in rats (gamma counter, % ID/g); type: in vivo; conditions: rat
Method: Compound-1 SPECT brain imaging and biodistribution were examined post injection in rats. All animal procedures were performed under isoflurane anesthesia (Induction 4%, Maintenance 2% in oxygen). One group of rats was injected intravenous (iv.) with [^123I]-Compound-1 (1.67 MBq ± 0.28, n = 3). A second group was injected intraperitoneal (ip.) (4.12 MBq ± 0.56, n = 3). A third group of animals was injected iv. with Na^123I (1.53 MBq ± 0.37 SD, n = 3). Biodistribution of these compounds was studied after the SPECT imaging sessions 1 h post-injection (in the iv. groups) and 2 and 5 h post-administration in the ip. group. Rats were positioned with the brain in the center of the field of view inside a 4 detector configuration Triumph™ II X-SPECT^Ⓡ small animal PET/SPECT/CT scanner (Trifoil Imaging, Northridge Tri-Modality Imaging, Inc., Chatsworth, CA). Heart rate and breathing was monitored with sensors inside a closed animal cell (Equipment Veterinaire Minerve, Esternay) and the temperature on the heated air flow inside the cell was set to 35 °C to prevent hypothermia. Dynamic SPECT acquisitions for 30 and 60 min with 6–12 image frames (5 min duration) were obtained for the animals which were used for 1–2 h biodistribution studies respectively. The animals subjected to the 5 h biodistribution study were scanned after an average of 4 h and 20 min, a static SPECT of 30 min was acquired. 1.0 mm 5-multipinhole collimator (N5F65A10) and 50 mm radius of rotation (ROR). Images were reconstructed using a 20% energy window and Ordered Subset Expectation Maximization (OSEM) algorithm with 5 iterations and 8 subsets. Computed tomography (CT) was performed using 80 kVp, 2 × 2 binning, 512 projections and 1.3× magnification, immediately after SPECT imaging. The raw data were reconstructed using Filtered Back Projection. Images were analyzed using PMOD (PMOD Technologies Ltd., Zürich). Volumes of interests (VOI) representing the brain-tissue, non-brain-tissue and background regions were delineated based on the anatomical CT images, and transferred to the co-registered dynamic SPECT data. In addition, an average SPECT image over all time frames was calculated for each animal.
Animals were euthanized with an overdose of pentobarbital (ip. […]) and organs were collected, weighed and analysed for radioactivity measurements on an automatic gamma counter (Wizard^2 2480, Perkin Elmer, USA). Organ distribution was expressed as percentage of injected dose per gram for the organs selected (% ID/g).

hGnRHR = target: T1, hGnRHR (Homo sapiens, UniProt P30968); test: Competitive binding for LHRH/GnRH by fluorescence based FLIPR-assay in HEK293T cells stably expressing GnRH receptors; type: cell-based; conditions: for Ki: 5 nM LHRH agonist, Ki by cheng-prusoff equation; for IC50: competition with 5 nM LHRH agonist, read-out: hGnRHR pIC50 (converted)
T1 construct: host or cells: HEK293T
T1 sequence (P30968 1-328): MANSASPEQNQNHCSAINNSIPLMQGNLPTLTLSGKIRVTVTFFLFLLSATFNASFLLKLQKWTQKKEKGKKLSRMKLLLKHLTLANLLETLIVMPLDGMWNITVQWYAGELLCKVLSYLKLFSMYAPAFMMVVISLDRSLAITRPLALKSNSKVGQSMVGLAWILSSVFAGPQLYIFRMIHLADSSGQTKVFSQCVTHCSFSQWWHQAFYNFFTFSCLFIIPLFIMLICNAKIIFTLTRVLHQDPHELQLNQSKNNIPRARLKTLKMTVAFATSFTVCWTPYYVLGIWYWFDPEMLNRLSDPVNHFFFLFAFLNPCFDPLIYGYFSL
Method: HEK293T (division arrested cell-line, Multispan Inc. USA) cells stably expressing GnRH receptors were used to measure the competitive binding for LHRH/GnRH by a fluorescence based FLIPR-assay. Compound-1 was tested in concentrations from 50 µM to 0.5 nM with 5 nM LHRH agonist as competitor.
The Ki was determined by using the cheng-prusoff equation [13].

[3] = Stability in saline (0.9% NaCl) by LC-MS; type: physicochemical; conditions: ambient temperature, n = 1
Method: as §1, with “Aliquots were taken at 0, 60, 120 and 1560 min, then analysed by LC–MS.” left out

[4] = Stability in human serum by LC-MS; type: in vitro ADME; conditions: for % of compound remaining, human serum: 37 °C
Method: as §1

[5] = Stability in rat serum by LC-MS; type: in vitro ADME; conditions: for % of compound remaining, rat serum: 37 °C
Method: as §1

[6] = 120 min, mean ± SD n = 3, listed as compound 1

For `CC(C)(C)c1ccc(-c2nc3c(N4CCN(C(=O)C[123I])CC4)cccc3[nH]2)cc1` [[^123I]-Compound-1], the “detection of intact radiotracer in blood by radio-HPLC” value [1] was “did not detect”, the “SPECT VOI comparison (brain, non-brain region, background region)” value (Rat brain SPECT imaging; semi-quantitative SPECT analysis) was “no significant differences” and the “organ distribution, brain” value ([2]; 1 h post iv. injection) was 0.03 % ID/g. For the same molecule, the “organ distribution, stomach” value ([2]; 1 h post iv. injection) was 3.6 % ID/g, the “organ distribution, testis” value ([2]; 1 h post iv. injection) was 0.2 % ID/g and the “organ distribution, thyroid” value ([2]; 1 h post iv. injection) was 1.2 % ID/g. For the same molecule, the “organ distribution, stomach” value ([2]; 2 h post ip. administration) was 2.5 % ID/g, the “organ distribution, thyroid” value ([2]; 2 h post ip. administration) was 5.8 % ID/g and the “organ distribution, stomach” value ([2]; 5 h post ip. administration) was 2 % ID/g. For the same molecule, the “organ distribution, thyroid” value ([2]; 5 h post ip. administration) was 13.1 % ID/g.

With `CC(C)(C)c1ccc(-c2nc3c(N4CCN(C(=O)CI)CC4)cccc3[nH]2)cc1` [Compound-1] the Ki (hGnRHR) was 82 nM, the IC50 (hGnRHR) was 5130 nM and the “% of compound remaining, saline” value ([3]; 0 min, 6.5 mM) was 100%. For the same molecule, the “% of compound remaining, saline” value ([3]; 60 min) was 46%, the “% of compound remaining, saline” value ([3]; 120 min) was 10% and the “% of compound remaining, saline” value ([3]; 1440 min (24 h)) was 2%. For the same molecule, the “% of compound remaining, saline” value ([3]; 1440 min (24 h), listed as compound 1) was 1.6%, the “% of compound remaining, human serum” value ([4]; 0 min, 5 mM) was 100% and the “% of compound remaining, human serum” value ([4]; 10 min, mean ± SD n = 3) was 88±1.6%. For the same molecule, the “% of compound remaining, human serum” value ([4]; 30 min, mean ± SD n = 3) was 74±8.1%, the “% of compound remaining, human serum” value ([4]; 60 min, mean ± SD n = 3) was 52±1.5% and the “% of compound remaining, human serum” value ([4]; 120 min, mean ± SD n = 3) was 23%. The “% of compound remaining, human serum” value [4, 6] was 23±1.6%, the “% of compound remaining, human serum” value ([4]; 240 min, mean ± SD n = 3) was 3±0.3% and the “% of compound remaining, human serum” value ([4]; 1320 min) was 0%. The “decrease of compound in human serum” value ([4]; after 1 h, LC-MS) was 50%, the “% of compound remaining, rat serum” value ([5]; 0 min, 6.5 mM) was 100% and the “% of compound remaining, rat serum” value ([5]; 10 min, mean ± SD n = 3) was 86±7.3%. The “% of compound remaining, rat serum” value ([5]; 30 min, mean ± SD n = 3) was 82±11.5%, the “% of compound remaining, rat serum” value ([5]; 60 min, mean ± SD n = 3) was 44±5.5% and the “% of compound remaining, rat serum” value ([5]; 120 min, mean ± SD n = 3) was “approximately 30%”. The “% of compound remaining, rat serum” value [5, 6] was 30±4.8%, the “% of compound remaining, rat serum” value ([5]; 240 min, mean ± SD n = 3) was 8±1.6% and the “% of compound remaining, rat serum” value ([5]; 1320 min) was 0%. For the same molecule, the “decrease of compound in rat serum” value ([5]; after 1 h, LC-MS) was 50% and the “brain uptake in SPECT images” value (Rat brain SPECT imaging; iv. or ip. injection) was “no uptake; also recorded: did not show any uptake”.

In the case of `CC(C)(C)c1ccc(-c2nc3c(N4CCN(Cc5ccc6nccnc6c5)CC4)cccc3[nH]2)cc1` [WAY207024, 6-({4-[2-(4-tert-butylphenyl)-1H-benzimidazol-4-yl]piperazin-1-yl}methyl)quinoxaline, reference compound], the Ki (hGnRHR) is reported as 12.2 nM and the IC50 (hGnRHR) is reported as 631 nM.
